The source of these data is patent US7169927B2, “Indole-amide derivatives and their use as glycogen phosphorylase inhibitors” (AstraZeneca AB, priority 2002, dated 2007).

For one assay, the system named is conscious dogs. As to conditions: following a glucagon challenge; cited from earlier work.
The test system of another assay is hepatocytes. The note with it: cited from earlier work; for glucose output: glucagon stimulated.
For the next assay, the system named is db/db and ob/ob mice. As to conditions: cited from earlier work.
The target in assay [1] is T1, Human recombinant liver glycogen phosphorylase a (hrl GPa) (Homo sapiens, UniProt P06737).
T1 sequence (P06737 1-847): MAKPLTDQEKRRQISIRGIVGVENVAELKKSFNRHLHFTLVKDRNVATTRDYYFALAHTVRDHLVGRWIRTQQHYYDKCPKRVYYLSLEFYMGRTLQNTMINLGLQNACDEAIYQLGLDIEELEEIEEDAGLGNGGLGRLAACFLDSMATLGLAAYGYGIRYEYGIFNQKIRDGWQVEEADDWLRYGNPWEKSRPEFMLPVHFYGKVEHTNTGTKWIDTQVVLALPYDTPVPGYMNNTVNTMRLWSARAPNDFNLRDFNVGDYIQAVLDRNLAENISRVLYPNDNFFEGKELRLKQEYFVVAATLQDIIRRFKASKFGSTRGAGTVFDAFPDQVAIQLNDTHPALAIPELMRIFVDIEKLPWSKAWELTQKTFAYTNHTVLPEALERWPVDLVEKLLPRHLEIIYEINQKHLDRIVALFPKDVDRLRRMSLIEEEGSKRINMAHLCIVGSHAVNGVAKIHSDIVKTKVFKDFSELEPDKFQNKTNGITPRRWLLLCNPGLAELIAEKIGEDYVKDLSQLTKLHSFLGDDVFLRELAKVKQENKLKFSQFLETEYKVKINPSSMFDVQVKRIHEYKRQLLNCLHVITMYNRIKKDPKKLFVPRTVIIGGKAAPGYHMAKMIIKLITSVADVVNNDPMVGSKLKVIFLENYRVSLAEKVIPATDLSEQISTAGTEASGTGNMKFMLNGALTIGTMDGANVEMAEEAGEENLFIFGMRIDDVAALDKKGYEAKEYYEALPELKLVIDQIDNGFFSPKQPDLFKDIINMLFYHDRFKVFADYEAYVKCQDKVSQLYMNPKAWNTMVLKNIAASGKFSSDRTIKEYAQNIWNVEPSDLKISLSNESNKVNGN
Nature of the assay: Glycogen phosphorylase a inhibition, glycogen degradation (multienzyme coupled assay, NADH fluorescence). Format: biochemical. The note with it: glycogen degradation direction. As to the method:
The activity of the compounds is alternatively determined by measuring the inhibitory effect of the compounds on glycogen degradation, the production of glucose-1-phosphate from glycogen is monitored by the multienzyme coupled assay, as described in EP 0 846 464 A2, general method of Pesce et al (Pesce, M A, Bodourian, S H, Harris, R C, and Nicholson, J F (1977) Clinical Chemistry 23, […]). The reactions were in 384well microplate format in a volume of 50 μl. The change in fluorescence due to the conversion of the co-factor NAD to NADH is measured at 340 nm excitation, 465 nm emission in a Tecan Ultra Multifunctional Microplate Reader. The reaction is in 50 mM HEPES, 3.5 mM KH2PO4, 2.5 mM MgCl2, 2.5 mM ethylene glycol-bis(b-aminoethyl ether) N,N,N′N′tetraacetic acid, 100 mM KCl, 8 mM D-(+)-glucose pH7.2, containing 0.5 mM dithiothreitol, the assay buffer solution. Human recombinant liver glycogen phosphorylase a (hrl GPa) 20 nM is pre-incubated in assay buffer solution with 6.25 mM NAD, 1.25 mg type III glycogen at 1.25 mg ml^−1 the reagent buffer, for 30 minutes. […] The non-inhibited activity of GPa is measured in the presence of 10 μl 5% DMSO in assay buffer solution and maximum inhibition measured in the presence of 5 mgs ml^−1 N-ethylmaleimide. […] Relative Fluoresence Units (RFUs) are measured at 340 nm excitation, 465 nm emission. […]

Each structure is given as a SMILES string.

For the compound `CCN1C(C)=C(C(=O)OC(C)C)C(c2ccccc2Cl)C2=C1COC2=O` (stereo not drawn) [Bay R 3401], in the assay on conscious dogs, the arterial plasma glucose result is reported as “reduced significantly” and the hepatic glucose output result is given as “reduced significantly”.

Regarding `CN(C)C(=O)[C@H](O)[C@H](Cc1ccccc1)NC(=O)c1cc2cc(Cl)ccc2[nH]1` [CP91149], in the assay with hepatocytes, the glucagon stimulated glycogenolysis entry is reported as “reduce” and the glucose output entry is reported as “reduce”. Also, the plasma glucose concentration result in the assay on db/db and ob/ob mice is listed as “reduced, in a dose related manner”.

On to `O=C(N[C@@H](Cc1ccc(F)cc1)C(=O)N1CCC(O)CC1)c1cc2cc(Cl)ccc2[nH]1` [CP320626], for which, in the assay with hepatocytes, the glucagon stimulated glycogenolysis entry was “reduce” and the glucose output result is recorded as “reduce”. Besides, in the assay with db/db and ob/ob mice, the plasma glucose concentration result is on record as “reduced, in a dose related manner”.

As for `Cc1csc(NC(=O)CN2C(=O)C(NC(=O)c3cc4cc(Cl)ccc4[nH]3)Cc3ccccc32)n1` (stereo not drawn) [Example 14, 5-chloro-N-(1-{2-[(4-methyl-1,3-thiazol-2-yl)amino]-2-oxoethyl}-2-oxo-1,2,3,4-tetrahydroquinolin-3-yl)-1H-indole-2-carboxamide], the concentration for half-maximal inhibition (IC50) (as a rule, the concentration needed to halve the response being measured) in assay [1] is 4.6 µM.
